Read-outs that look alike come from different tables or passages of the source.
Tests used:
[1] = system: bloodstream form of T. b. brucei (strain 427); assay: Bioluminescence viability assay against bloodstream T. b. brucei expressing luciferase; details: for anti-T. brucei activity in preliminary screening, in words: 10 µM; for activity at 10 µM / IC50 / inhibition at 10 µM: 24 h; for activity at 10 µM: read-out: T. brucei bloodstream % Growth (10 µM), 10 µM, 24 h; for T. brucei SI vs. Hepatocytes: CC50 HepG2 hepatocytes/IC50 T. brucei; for T. brucei bloodstream SI vs. Macrophages: CC50 RAW macrophages/IC50 T. brucei; for inhibition at 10 µM: read-out: T. brucei growth inhibition at 10 µM
[2] = MTT cytotoxicity assay, HepG2; type: cell-based; details: human, HepG2 cells, HepG2, 72 h, read-out: CC50 HepG2 Hepatocytes
Protocol: (§1) Murine macrophages (cell line RAW 264.7, ATCC® TIB-71™) were grown in Dulbecco’s Modified Eagle Medium (DMEM) (Gibco, Invitrogen, Waltham, MA, USA) supplemented with 10% fetal bovine serum (FBS) (Eurobio) and 100 IU/mL penicillin + 100 µg/mL streptomycin (Gibco), at 37 °C, in an atmosphere containing 5% CO2. Human hepatocyte cell line HepG2 (ATCC® HB-8065™) was grown in MEM (Gibco, Invitrogen) supplemented with 10% FBS (Gibco, Invitrogen), 1% NEAA (Gibco, Invitrogen), and 1% L-glutamine (Gibco, Invitrogen). The medium was renewed twice a week. For both cell lines, the viability was determined using the MTT assay as described before for leishmanicidal activity assessment, with some variations. Here, 5 × 10^4 cells/well in a final volume of 100 µL were seeded into a 96-well plate, in triplicate for RAW macrophages and in duplicate for HepG2. Saponin (2.4 mg/mL) and untreated cells were used as positive control and negative control, respectively. Compounds were dissolved in DMSO to obtain different serial concentrations (1.56 to 800 µM) for RAW macrophages and 100–0.001 µM for HepG2. The final concentration of DMSO in each well was 0.5%. After exposure to compounds for 48 h and 72 h for RAW and HepG2 cells, respectively, 10 µL/well of MTT (5 mg/mL in PBS) was added, incubated at 37 °C for 2 h in darkness, and cells were pelleted via centrifugation at 4400 rpm for 10 min. The medium was removed, and 100 µL/well of DMSO was added to dissolve formazan. The absorbance at 570 and 630 nm was recorded following the same procedure as with parasites.

[3] = system: L. mexicana promastigotes; assay: MTT viability assay against L. mexicana promastigotes; type: cell-based, Leishmania mexicana; details: for L. mexicana Promastigote SI vs. Hepatocytes: CC50 HepG2 hepatocytes/IC50 L. mexicana; for L. mexicana Promastigote SI vs. Macrophage: CC50 RAW macrophages/IC50 L. mexicana; for IC50: 48 h
Protocol: The leishmanicidal activity against promastigotes from L. mexicana was evaluated by measuring parasites’ mitochondrial activity using the MTT (Thiazolyl Blue Tetrazolium Bromide) colorimetric assay as described previously. […] The medium was renewed every third day and subcultures were prepared when parasite density reached 1 × 10^7 parasites/mL. A Neubauer chamber was used to determine parasite density.

[4] = MTT cytotoxicity assay, murine macrophages; type: cell-based; details: mouse, RAW 264.7 macrophage cells, RAW 264.7, 48 h
Protocol: as §1

[5] = Leishmania mexicana, read-out: L. mexicana Promastigote IC50, promastigotes, 48 h, MTT
[6] = Trypanosoma brucei, read-out: T. brucei bloodstream IC50, 24 h, bioluminescence

Compound | anti-T. brucei activity in preliminary screening, in words [1] | activity at 10 µM ([1]; Trypanosoma brucei) [%] | CC50 at 72 h [2] [µM] | melting point [°C] | L. mexicana Promastigote SI vs. Hepatocytes [3] | L. mexicana Promastigote SI vs. Macrophage [3] | IC50 [3, 5] [µM] | CC50 at 48 h [4] [µM] | T. brucei SI vs. Hepatocytes [1] | T. brucei bloodstream SI vs. Macrophages [1] | IC50 [1, 6] [µM] | IC50 ([1]; read-out: T. brucei bloodstream IC50, bioluminescence) [µM] | SI against T. brucei, range over both mammalian cell lines ([1]; murine macrophages and HepG2 hepatocytes) | inhibition at 10 µM ([1]; Trypanosoma brucei) [%] | IC50 ([3]; read-out: L. mexicana Promastigote IC50, promastigotes, MTT) [µM]
Cc1nn(-c2ccccc2)c(O)c1C(c1cccc(F)c1)c1c(C)nn(-c2ccccc2)c1O [Compound 2t] | inactive | > 100 | 20 ± 11 | 178 to 179 | 1.8 | 10.5 | 11 ± 1 | 115 ± 21 | – | – | – | – | – | – | –
CSc1ccc(C(c2c(C)nn(-c3ccccc3)c2O)c2c(C)nn(-c3ccccc3)c2O)cc1 [Compound 2u] | inactive | > 100 | 21 ± 10 | 209.1 to 211.3 | 0.7 | 3.2 | 30 ± 10 | 96 ± 27 | – | – | – | – | – | – | –
COC(=O)c1ccc(C(c2c(C)nn(-c3ccccc3)c2O)c2c(C)nn(-c3ccccc3)c2O)cc1 [Compound 2q] | – | ≤ 50 | 29 ± 4 | – | 2.2 | 8.5 | 13 ± 3 | 111 ± 2 | 4.9 | 19 | 6 | 5.9 ± 0.6 | – | – | –
Cc1nn(-c2ccccc2)c(O)c1C(c1ccc(N(C)C)cc1)c1c(C)nn(-c2ccccc2)c1O [Compound 2g] | inactive | > 100 | – | 188.8 to 189.6 | – | – | > 50 | – | – | – | – | – | – | – | –
COc1ccccc1C(c1c(C)nn(-c2ccccc2)c1O)c1c(C)nn(-c2ccccc2)c1O [Compound 2f] | – | ≤ 50 | > 100 | – | >4.5 | 4.2 | 22 ± 9 | 93 ± 7 | >12.5 | 11.6 | 8 ± 0.27 | – | 11.6–18 | – | –
Cc1nn(-c2ccccc2)c(O)c1C(c1cccc(O)c1)c1c(C)nn(-c2ccccc2)c1O [Compound 2l] | inactive | > 100 | > 100 | 165 to 167 | >5.6 | 6 | 18 ± 5 | 108 ± 33 | – | – | – | – | – | 0 | –
C[C@@H]1[C@H](O)[C@@H](C)/C=C/C=C/C=C/C=C/C=C/C=C/C=C/[C@H](O[C@@H]2O[C@H](C)[C@@H](O)[C@H](N)[C@@H]2O)C[C@@H]2O[C@](O)(C[C@@H](O)C[C@@H](O)[C@H](O)CC[C@@H](O)C[C@@H](O)CC(=O)O[C@H]1C)C[C@H](O)[C@H]2C(=O)O [Amphotericin B, reference compound] | – | – | – | – | – | – | 0.17 ± 0.05 | > 5 | – | – | – | – | – | – | –
COc1ccc(C(c2c(C)nn(-c3ccccc3)c2O)c2c(C)nn(-c3ccccc3)c2O)cc1 [Compound 2e] | inactive | > 100 | – | 176 to 177 | – | – | > 50 | – | – | – | – | – | – | – | –
Cc1nn(-c2ccccc2)c(O)c1C(c1ccc([N+](=O)[O-])cc1)c1c(C)nn(-c2ccccc2)c1O [Compound 2k] | – | 88 ± 4 | 15 ± 6 | – | 1.7 | 13 | ≤ 10 | 117 ± 15 | – | – | – | – | – | – | 9 ± 1
Cc1nn(-c2ccccc2)c(O)c1C(c1ccc(O)cc1)c1c(C)nn(-c2ccccc2)c1O [Compound 2o] | inactive | > 100 | – | 217.2 to 218.9 | – | – | > 50 | – | – | – | – | – | – | 0 | –

Source: publication PMC9405596, “Evaluation of the Anti-Leishmania mexicana and -Trypanosoma brucei Activity and Mode of Action of 4,4′-(Arylmethylene)bis(3-methyl-1-phenyl-1H-pyrazol-5-ol)” (Biomedicines, 2022)
